Data reported in US9144573B2, “Prostaglandin transporter inhibitors” (Albert Einstein College of Medicine of Yeshiva University, priority 2006, dated 2015).

Molecular target: T1, prostaglandin transporter (PGT) (Rattus norvegicus, UniProt Q00910)
T1 construct: GFP; expressed in transfected cells
Assay: PGE2 uptake by MDCK cells stably expressing PGT
Format: cell-based
Procedure: MDCK or 3T3 cells were seeded at 15-20% confluence on 24-well plates. The day on which the cells were seeded was considered day 1. PGE2 uptake experiments were conducted on day 4. All of the PGE2 uptake experiments were conducted at room temperature. On day 4, cells were washed twice with Waymouth buffer (135 mM NaCl, 13 mM H-Hepes, 13 mM Na-Hepes, 2.5 mM CaCl2, 1.2 mM MgCl2, 0.8 mM MgSO4, 5 mM KCl, and 28 mM D-glucose). Then 200 μL of Waymouth buffer containing [^3H]PGE2 was added to each well. At the designated time, the uptake of [^3H]PGE2 was stopped by aspiration of uptake buffer; this was followed by immediate washing twice with 500 μL of chilled Waymouth buffer. Cells were then lysed with 100 μL lysis buffer containing 0.25% SDS and 0.05 N NaOH. 1.5 mL of scintillation solution was added to each well, and intracellular [^3H]PGE2 was counted by MicroBeta Counter.
For preliminary screening of the compounds, 25 μL of Waymouth buffer containing small organic compounds were added to each well; this was immediately followed by the addition of 175 μL of Waymouth buffer containing [^3H]PGE2. In each well, the total volume of uptake medium was 200 μL. Organic compounds were first dissolved in DMSO and then diluted in Waymouth buffer. The percent inhibition of [^3H]PGE2 uptake by compounds was calculated as [(uptakevehicle−uptakeinhibitor)÷(uptakevehicle)]×100.
The initial velocities at various initial extracellular concentrations of PGE2 were determined from the PGE2 uptake in the first 2 minutes; these were linear over the time course of PGE2 uptake. Ki values were obtained by curve fitting the reciprocal of initial velocities of PGE2 uptake versus the reciprocal of extracellular PGE2 concentrations at various concentrations of the inhibitors. At low PGE2 concentrations, the extracellular concentrations were taken as ^3H labeled PGE2, which has a specific activity of 500 μCi/mol. At high concentrations of PGE2, a mixture of ^3H labeled and unlabeled PGE2 was made to a final specific activity of 25 μCi/mol.

## [N-]=[N+]=NCCOCCOCCNC(=O)c1ccc(Nc2nc(NCCOCCOCCNC(=O)c3ccccc3)nc(Nc3ccc(O)cc3)n2)cc1 [T26A]
Example 2
  Ki: 300 nM
MDCK, read-out: % Inhib. at 5 μM
  inhibition at 5 µM: 92%
Table 2
  Ki: 380 nM
Double reciprocal analysis
  mode of inhibition: competitively inhibits
